# Test results taken from US9718809B2, “Bisarylsulfonamides useful in the treatment of inflammation and cancer” (Kancera AB, priority 2011, dated 2017).
# Structures can show the parent of a compound that is named as a salt.
# Tested on: F-2,6-P2 in PANC-1 cells
# Test: Quantification of F-2,6-P2 (Van Schaftingen coupled enzyme assay) in PANC-1 cells
# Assay type: cell-based, human
# Conditions: Homo sapiens; PANC-1 cells; read-out: IC50 based on quantification of F-2,6-P2
# Source text: A method for quantification of F-2,6-P2 has been described by Van Schaftingen et al. (1982) Eur. J. Biochem. 129, 191-5. This sensitive assay is based on the potent activation of pyrophosphate dependent phosphofructokinase-1 (PPi-PFK) from potato tubers by F-2,6-P2. The use of a series of coupled enzymes leads to a consumption of NADH (nicotinamide adenine dinucleotide) that can be followed spectrophotometrically (an updated protocol is available in Van Schaftingen, (1984) Methods of Enzymatic Analysis (Bergmeyer, H. U., ed.), 3rd edn., vol. 6, pp. 335-341, Verlag Chemie, Weinheim). A protocol for measurements in 96-well microtiter plate format is also available (Bruni et al., (1989) Anal. Biochem. 178, 324-6).
# The levels of F-2,6-P2 have been determined using the van Shaftingen assay as described in the protocol below, in six different cancer cell lines endogenously expressing varying levels of the different isoforms of PFK-2/BPase-2 (MCF-7, PANC-1, NUGC-3, SW480, SW620 and MIA PaCa-2). All reagents were purchased from commercial sources or prepared in-house.
# Cell line B (PANC-1, human pancreatic carcinoma cell line): PANC-1 cells (ATCC-CRL-1469), lot. no. 58564651. Cells were seeded at a concentration of ˜250 000 cells/mL in 100 μL growth medium (˜25 000 cells/well).
# Growth medium (cell lines B-F): Dulbecco's Modified Eagle's Medium, DMEM, VWR, LONZ12-604F; 10% FBS, Invitrogen, 10270-106.
# Starvation medium (cell lines A-F): DMEM/F12 without phenol red and glucose free, SVA, 991373; 0.25% FBS, Invitrogen, 10270-106.
# Induction medium (cell lines A-F): DMEM/F12 without phenol red and glucose free, SVA, 991373; 0.25% FBS, Invitrogen, 10270-106 (same as starvation medium).
# Cells were seeded in 96-well Corning Costar tissue culture plates (CLS3595, Sigma-Aldrich) using the concentrations specified above for the different cell lines A-F and incubated over night at 37° C. and 5% CO2. Row A in the plate was left empty and the cell lines added to rows B-H. Next day the growth medium was discarded and replaced with 100 μL starvation medium. The plates were incubated for 18 h at 37° C. and 5% CO2. After 18 h of starvation the cells were induced with 100 μL compound or control solutions. Compounds were either tested in two concentrations (50 μM and 10 μM) or in dose response curves starting from 50 μM. The final DMSO concentration in assay plates was 0.5%. Also a dose response curve of a reference inhibitor was included in row H on each plate. All compounds were tested in duplicate plates. Compounds (in 96 well CLS 3365, Sigma-Aldrich plates) were serial diluted in DMSO from 10 mM compound DMSO stock solutions with Janus (automated liquid handling workstation from PerkinElmer). Five μL were transferred to a Greiner deep well plate (736-0155, VWR) with 495 μL starvation medium. The final start concentration of compounds in the dilution plate was 100 μM, 1% DMSO. For compounds tested as single points, 10 mM compound solutions were diluted five fold in DMSO to 2 mM, followed by the transfer of 5 μL to separate dilution plates with 495 μL starvation medium. The final concentrations of compounds in these dilution plates were 100 or 20 μM, respectively, and final concentration of DMSO was 1%. The plates were incubated at 37° C. and 5% CO2 for 1 h, followed by the addition of 10 μL 20 mM D-glucose in starvation medium. Controls, with and without 1 mM glucose, were included in row B. The final assay volume was 210 μL per well. After 2 h of incubation at 37° C. and 5% CO2, the supernatants were discarded and the cells lysed by the addition of 25 μL 250 mM NaOH. The plates were incubated at 37° C. and 5% CO2 for 5 min followed by an addition of 75 μL MilliQ dH2O. The supernatants were further diluted with 210 μL MilliQ dH2O to a final concentration of 20 mM NaOH. 200 μL were transferred to NUNC 96-well plates (7322661, VWR) and the plates were sealed and stored at −20° C. until analysis. […]
row,Structure (SMILES),IC50
1,"COC(=O)c1ccc(NS(=O)(=O)c2cc(-c3cccc(C(=O)N(C)C)c3)c(Cl)s2)cc1O [Example 143, Methyl 4-[({5-chloro-4-[3-(dimethylcarbamoyl)phenyl]thiophen-2-yl}sulfonyl)amino]-2-hydroxybenzoate]",2400 nM
2,"O=C(OCCO)c1ccc(NS(=O)(=O)c2cc(-c3ccccc3)c(Cl)s2)cc1O [Example 217, 2-Hydroxyethyl 4-{[(5-chloro-4-phenyl-2-thienyl)sulfonyl]amino}-2-hydroxybenzoate]",1400 nM
3,"COC(=O)c1ccc(NS(=O)(=O)c2ccc(-c3cc(F)ccc3F)s2)cc1O [Example 118, Methyl 4-({[5-(2,5-difluorophenyl)thiophen-2-yl]sulfonyl}amino)-2-hydroxybenzoate]",2000 nM
4,"CCOCCOC(=O)c1ccc(NS(=O)(=O)c2cc(Cl)sc2Cl)cc1O [Example 66, 2-Ethoxyethyl 4-{[(2,5-dichloro-3-thienyl)sulfonyl]amino}-2-hydroxybenzoate]",5700 nM
5,"COC(=O)c1ccc(NS(=O)(=O)c2cc(-c3ccc4c(c3)CCO4)cc(C(F)(F)F)c2)cc1O [Example 116, Methyl 4-({[3-(2,3-dihydro-1-benzofuran-5-yl)-5-(trifluoromethyl)phenyl]sulfonyl}amino)-2-hydroxybenzoate]",1700 nM
6,"COCCOC(=O)c1ccc(NS(=O)(=O)c2cccc(-c3ccc4c(c3)CCO4)c2)cc1O [Example 175, 2-Methoxyethyl 4-({[3-(2,3-dihydro-1-benzofuran-5-yl)phenyl]sulfonyl}amino)-2-hydroxybenzoate]",700 nM
7,"COC(=O)c1ccc(NS(=O)(=O)c2cccc(-c3ccncc3)c2)cc1O [Example 89, Methyl 2-hydroxy-4-{[(3-pyridin-4-ylphenyl)sulfonyl]amino}benzoate trifluoroacetate]",6700 nM
8,"COC(=O)c1ccc(NS(=O)(=O)c2cccc(-c3ccc(OC(F)(F)F)cc3)c2)cc1O [Example 99, Methyl 2-hydroxy-4-({[4′-(trifluoromethoxy)biphenyl-3-yl]sulfonyl}amino)benzoate]",2400 nM
9,"COC(=O)c1ccc(NS(=O)(=O)Cc2ccc(-c3ccccc3O)cc2)cc1O [Example 126, Methyl 2-hydroxy-4-({[(2′-hydroxybiphenyl-4-yl)methyl]sulfonyl}amino)benzoate]",1400 nM
10,"COC(=O)c1ccc(NS(=O)(=O)c2cccc3c(N(C)C)cccc23)cc1O [Example 40, Methyl 4-({[5-(dimethylamino)naphthalen-1-yl]sulfonyl}amino)-2-hydroxybenzoate trifluoroacetate]",2100 nM
11,"COC(=O)c1ccc(NS(=O)(=O)c2ccc(F)c3ccccc23)cc1O [Example 33, Methyl 4-{[(4-fluoro-1-naphthyl)sulfonyl]amino}-2-hydroxybenzoate]",3600 nM
12,"COC(=O)c1ccc(NS(=O)(=O)Cc2ccc(Br)cc2)cc1O [Example 24, Methyl 4-{[(4-bromobenzyl)sulfonyl]amino}-2-hydroxybenzoate]",10400 nM
13,"COCC(COC)OC(=O)c1ccc(NS(=O)(=O)c2cc(-c3cccc(F)c3)c(Cl)s2)cc1O [Example 222, 2-Methoxy-1-(methoxymethyl)ethyl 4-({[5-chloro-4-(3-fluorophenyl)-2-thienyl]sulfonyl}amino)-2-hydroxybenzoate]",2000 nM

# Same assay, conditions: at 12.5-50 μM in PANC-1 cells
row,Structure (SMILES),"inhibition (F-2,6-P2 levels)"
1,"COC(=O)c1ccc(NS(=O)(=O)c2ccc(Cl)cc2)cc1O [Example 42, Methyl 4-{[(4-chlorophenyl)sulfonyl]amino}-2-hydroxybenzoate]",≥ 50%
2,"O=C(Oc1ccccc1)c1ccc(NS(=O)(=O)c2cc(Cl)c(Cl)s2)cc1O [Example 73, Phenyl 4-{[(4,5-dichloro-2-thienyl)sulfonyl]amino}-2-hydroxybenzoate]",≥ 50%
3,"COC(=O)c1ccc(NS(=O)(=O)c2cc(Cl)c(-c3ccccc3OC)s2)cc1O [Example 207, Methyl 4-({[4-chloro-5-(2-methoxyphenyl)thiophen-2-yl]sulfonyl}amino)-2-hydroxybenzoate]",≥ 50%
